{"source": "patent US10442804B2", "about": "“Compounds for the treatment of hepatitis B virus infection” (Gilead Sciences, Inc., priority 2017, dated 2019)", "key": {"[1]": {"tested_on": "HBV-infected NTCP-HepG2 cells, secreted HBsAg", "test": "microbe, parasite or virus in culture", "type": "cell-based, hepatitis B virus (genotype D, AD38-derived)", "conditions": "Hepatitis B virus, 120 h, secreted HBsAg in supernatant after 5 days; geometric mean of minimum four determinations; read-out: NTCP HBsAg EC50", "method_in_brief": "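NTCP-HepG2 cells were infected with genotype D HBV at 4000 genome equivalents/cell, then seeded 4 days post-infection with serially diluted compounds (1% DMSO) for 5 days. Supernatant HBsAg was measured by chemiluminescent MSD immunoassay. EC50 from four-parameter fit, geometric mean of ≥4 determinations.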"}, "MT-4 cytotoxicity assay": {"test": "MT-4 cytotoxicity assay", "type": "cell-based, human", "conditions": "human, five days, Cell Titer Glo luminescence; read-out: MT-4 CC50"}}, "data": [{"smiles": "CC1(COc2cc3c(cc2Cl)-c2cc(=O)c(C(=O)O)cn2N2[C@@H]3CCC2(C)C)COC1", "note": "[Example 49, (R)-11-chloro-3,3-dimethyl-12-((3-methyloxetan-3-yl)methoxy)-8-oxo-2,3,8,13b-tetrahydro-1H-pyrido[2,1-a]pyrrolo[1,2-c]phthalazine-7-carboxylic acid]", "values": [{"measurement": "EC50", "setting": "[1]", "result": 3.8, "unit": "nM"}, {"measurement": "CC50 at 5 days", "setting": "MT-4 cytotoxicity assay", "result": "> 10000", "unit": "nM"}]}, {"smiles": "CC1(C)CC[C@@H]2c3cc(C#CC(C)(C)S(C)(=O)=O)c(OC(F)(F)F)cc3-c3cc(=O)c(C(=O)O)cn3N21", "note": "[Example 89, (R)-3,3-dimethyl-12-(3-methyl-3-(methylsulfonyl)but-1-yn-1-yl)-8-oxo-11-(trifluoromethoxy)-2,3,8,13b-tetrahydro-1H-pyrido[2,1-a]pyrrolo[1,2-c]phthalazine-7-carboxylic acid]", "values": [{"measurement": "EC50", "setting": "[1]", "result": 13.7, "unit": "nM"}, {"measurement": "CC50 at 5 days", "setting": "MT-4 cytotoxicity assay", "result": "> 10000", "unit": "nM"}]}, {"smiles": "COCCCOc1cc2c(cc1CO)-c1cc(=O)c(C(=O)O)cn1N1[C@@H]2CCC1(C)C", "note": "[Compound 113, (R)-11-(hydroxymethyl)-12-(3-methoxypropoxy)-3,3-dimethyl-8-oxo-2,3,8,13b-tetrahydro-1H-pyrido[2,1-a]pyrrolo[1,2-c]phthalazine-7-carboxylic acid]", "values": [{"measurement": "EC50", "setting": "[1]", "result": 22.7, "unit": "nM"}, {"measurement": "CC50 at 5 days", "setting": "MT-4 cytotoxicity assay", "result": "> 10000", "unit": "nM"}]}, {"smiles": "CC(C)(C)OC(=O)[C@H]1CCN(c2cc3c(cc2OC(F)(F)F)-c2cc(=O)c(C(=O)O)cn2N2[C@@H]3CCC2(C)C)C1", "note": "[Compound 115, (R)-12-((S)-3-(tert-butoxycarbonyl)pyrrolidin-1-yl)-3,3-dimethyl-8-oxo-11-(trifluoromethoxy)-2,3,8,13b-tetrahydro-1H-pyrido[2,1-a]pyrrolo[1,2-c]phthalazine-7-carboxylic acid]", "values": [{"measurement": "EC50", "setting": "[1]", "result": 2.9, "unit": "nM"}, {"measurement": "CC50 at 5 days", "setting": "MT-4 cytotoxicity assay", "result": 8300, "unit": "nM"}]}, {"smiles": "COc1cc2c(cc1OCC1CC(=O)C1)[C@H]1CCC(C)(C)N1n1cc(C(=O)O)c(=O)cc1-2", "note": "[Example 37]", "values": [{"measurement": "EC50", "setting": "[1]", "result": 4, "unit": "nM"}, {"measurement": "CC50 at 5 days", "setting": "MT-4 cytotoxicity assay", "result": "> 10000", "unit": "nM"}]}, {"smiles": "COCCCOc1cc2c(cc1OCC(F)F)-c1cc(=O)c(C(=O)O)cn1N1[C@@H]2CCC1(C)C", "note": "[Example 27, (R)-11-(2,2-difluoroethoxy)-12-(3-methoxypropoxy)-3,3-dimethyl-8-oxo-2,3,8,13b-tetrahydro-1H-pyrido[2,1-a]pyrrolo[1,2-c]phthalazine-7-carboxylic acid]", "values": [{"measurement": "EC50", "setting": "[1]", "result": 3.7, "unit": "nM"}, {"measurement": "CC50 at 5 days", "setting": "MT-4 cytotoxicity assay", "result": "> 10000", "unit": "nM"}]}, {"smiles": "COCCCOc1cc2c(cc1Cl)-c1cc(=O)c(C(=O)O)cn1N1[C@H](C)CC[C@@H]21", "note": "(single isomer, unassigned) [Example 9]", "values": [{"measurement": "EC50", "setting": "[1]", "result": 45, "unit": "nM"}, {"measurement": "CC50 at 5 days", "setting": "MT-4 cytotoxicity assay", "result": "> 10000", "unit": "nM"}]}, {"smiles": "CC1(C)CC[C@@H]2c3cc(OCCn4nc5ccccn5c4=O)c(C4CC4)cc3-c3cc(=O)c(C(=O)O)cn3N21", "note": "[Example 96, (R)-11-cyclopropyl-3,3-dimethyl-8-oxo-12-(2-(3-oxo-[1,2,4]triazolo[4,3-a]pyridin-2(3H)-yl)ethoxy)-2,3,8,13b-tetrahydro-1H-pyrido[2,1-a]pyrrolo[1,2-c]phthalazine-7-carboxylic acid]", "values": [{"measurement": "EC50", "setting": "[1]", "result": 0.17, "unit": "nM"}, {"measurement": "CC50 at 5 days", "setting": "MT-4 cytotoxicity assay", "result": "> 10000", "unit": "nM"}]}, {"smiles": "COCc1cc2c(cc1OCCCOC1COC1)[C@H]1CCC(C)(C)N1n1cc(C(=O)O)c(=O)cc1-2", "note": "[Example 94, (R)-11-(methoxymethyl)-3,3-dimethyl-12-(3-(oxetan-3-yloxy)propoxy)-8-oxo-2,3,8,13b-tetrahydro-1H-pyrido[2,1-a]pyrrolo[1,2-c]phthalazine-7-carboxylic acid]", "values": [{"measurement": "EC50", "setting": "[1]", "result": 6, "unit": "nM"}, {"measurement": "CC50 at 5 days", "setting": "MT-4 cytotoxicity assay", "result": "> 10000", "unit": "nM"}]}, {"smiles": "COCCCOc1cc2c(cc1Cl)-c1cc(=O)c(C(=O)O)cn1N1CC(C)(C)C[C@H]21", "note": "(single isomer, unassigned) [Example 29]", "values": [{"measurement": "EC50", "setting": "[1]", "result": 14, "unit": "nM"}, {"measurement": "CC50 at 5 days", "setting": "MT-4 cytotoxicity assay", "result": "> 10000", "unit": "nM"}]}, {"smiles": "COCc1cc2c(cc1OCC1(COC)CC1)[C@H]1CCC(C)(C)N1n1cc(C(=O)O)c(=O)cc1-2", "note": "[Compound 109, (R)-11-(methoxymethyl)-12-((1-(methoxymethyl)cyclopropyl)methoxy)-3,3-dimethyl-8-oxo-2,3,8,13b-tetrahydro-1H-pyrido[2,1-a]pyrrolo[1,2-c]phthalazine-7-carboxylic acid]", "values": [{"measurement": "EC50", "setting": "[1]", "result": 13.2, "unit": "nM"}, {"measurement": "CC50 at 5 days", "setting": "MT-4 cytotoxicity assay", "result": "> 10000", "unit": "nM"}]}, {"smiles": "COCCCOc1cc2c(cc1Cl)-c1cc(=O)c(C(=O)O)cn1N1[C@@H]2CC[C@@H]1C", "note": "(single isomer, unassigned) [Example 10]", "values": [{"measurement": "EC50", "setting": "[1]", "result": 5.7, "unit": "nM"}, {"measurement": "CC50 at 5 days", "setting": "MT-4 cytotoxicity assay", "result": "> 10000", "unit": "nM"}]}, {"smiles": "COc1cc2c(cc1C#Cc1cncn1C)[C@H]1CCC(C)(C)N1n1cc(C(=O)O)c(=O)cc1-2", "note": "[Example 42, (R)-11-methoxy-3,3-dimethyl-12-((1-methyl-1H-imidazol-5-yl)ethynyl)-8-oxo-2,3,8,13btetrahydro-1H-pyrido[2,1-a]pyrrolo[1,2-c]phthalazine-7-carboxylic acid]", "values": [{"measurement": "EC50", "setting": "[1]", "result": 4.8, "unit": "nM"}, {"measurement": "CC50 at 5 days", "setting": "MT-4 cytotoxicity assay", "result": "> 10000", "unit": "nM"}]}, {"smiles": "COCCCOc1cc2c(cc1Cl)-c1cc(=O)c(C(=O)O)cn1N1CCCC(C)(C)C21", "note": "(stereo not shown) [Example 38, 13-chloro-12-(3-methoxypropoxy)-10,10-dimethyl-2-oxo-2,7,8,9,10,10a-hexahydrodipyrido[2,1-a:1′,2′-c]phthalazine-3-carboxylic acid]", "values": [{"measurement": "EC50", "setting": "[1]", "result": 27, "unit": "nM"}, {"measurement": "CC50 at 5 days", "setting": "MT-4 cytotoxicity assay", "result": 9900, "unit": "nM"}]}, {"smiles": "CC1(C)CC[C@@H]2c3cc(-c4cnn(C5COC5)c4)c(OC(F)(F)F)cc3-c3cc(=O)c(C(=O)O)cn3N21", "note": "[Example 93, (R)-3,3-dimethyl-12-(1-(oxetan-3-yl)-1H-pyrazol-4-yl)-8-oxo-11-(trifluoromethoxy)-2,3,8,13b-tetrahydro-1H-pyrido[2,1-a]pyrrolo[1,2-c]phthalazine-7-carboxylic acid]", "values": [{"measurement": "EC50", "setting": "[1]", "result": 4.4, "unit": "nM"}, {"measurement": "CC50 at 5 days", "setting": "MT-4 cytotoxicity assay", "result": "> 10000", "unit": "nM"}]}, {"smiles": "COCCCOc1c(OC)cc2c(c1F)[C@H]1CCC(C)(C)N1n1cc(C(=O)O)c(=O)cc1-2", "note": "[Example 67, (R)-13-fluoro-11-methoxy-12-(3-methoxypropoxy)-3,3-dimethyl-8-oxo-2,3,8,13b-tetrahydro-1H-pyrido[2,1-a]pyrrolo[1,2-c]phthalazine-7-carboxylic acid]", "values": [{"measurement": "EC50", "setting": "[1]", "result": 5.3, "unit": "nM"}, {"measurement": "CC50 at 5 days", "setting": "MT-4 cytotoxicity assay", "result": "> 10000", "unit": "nM"}]}, {"smiles": "COc1cc2c(cc1C#CC(C)(C)S(C)(=O)=O)[C@H]1CCC(C)(C)N1n1cc(C(=O)O)c(=O)cc1-2", "note": "[Example 83, (R)-11-methoxy-3,3-dimethyl-12-(3-methyl-3-(methylsulfonyl)but-1-yn-1-yl)-8-oxo-2,3,8,13b-tetrahydro-1H-pyrido[2,1-a]pyrrolo[1,2-c]phthalazine-7-carboxylic acid]", "values": [{"measurement": "EC50", "setting": "[1]", "result": 9.6, "unit": "nM"}, {"measurement": "CC50 at 5 days", "setting": "MT-4 cytotoxicity assay", "result": "> 10000", "unit": "nM"}]}, {"smiles": "COc1cc2c(cc1OCCC(C)(C)OC)[C@H]1CCC(C)(C)N1n1cc(C(=O)O)c(=O)cc1-2", "note": "[Example 64, (R)-11-methoxy-12-(3-methoxy-3-methylbutoxy)-3,3-dimethyl-8-oxo-2,3,8,13b-tetrahydro-1H-pyrido[2,1-a]pyrrolo[1,2-c]phthalazine-7-carboxylic acid]", "values": [{"measurement": "EC50", "setting": "[1]", "result": 0.84, "unit": "nM"}, {"measurement": "CC50 at 5 days", "setting": "MT-4 cytotoxicity assay", "result": "> 10000", "unit": "nM"}]}, {"smiles": "COC(C)(C)C#Cc1cc2c(cc1OC(F)F)-c1cc(=O)c(C(=O)O)cn1N1[C@@H]2CCC1(C)C", "note": "[Example 103, (R)-11-(difluoromethoxy)-12-(3-methoxy-3-methylbut-1-yn-1-yl)-3,3-dimethyl-8-oxo-2,3,8,13b-tetrahydro-1H-pyrido[2,1-a]pyrrolo[1,2-c]phthalazine-7-carboxylic acid]", "values": [{"measurement": "EC50", "setting": "[1]", "result": 0.82, "unit": "nM"}, {"measurement": "CC50 at 5 days", "setting": "MT-4 cytotoxicity assay", "result": "> 10000", "unit": "nM"}]}, {"smiles": "COCc1cc2c(cc1OCCCO)[C@H]1CCC(C)(C)N1n1cc(C(=O)O)c(=O)cc1-2", "note": "[Compound 111, (R)-12-(3-hydroxypropoxy)-11-(methoxymethyl)-3,3-dimethyl-8-oxo-2,3,8,13b-tetrahydro-1H-pyrido[2,1-a]pyrrolo[1,2-c]phthalazine-7-carboxylic acid]", "values": [{"measurement": "EC50", "setting": "[1]", "result": 32.2, "unit": "nM"}, {"measurement": "CC50 at 5 days", "setting": "MT-4 cytotoxicity assay", "result": "> 10000", "unit": "nM"}]}]}
